We go through three compounds from US5492905A, “1-bolizazepin-2,5-diones” (Zeneca Limited, priority 1992, dated 1996).

In experiment [1] the test system is neuronal damage in the hippocampus. As to the kind of experiment: gerbil ischemic model (bilateral carotid occlusion), neuroprotection. Format: in vivo, Mongolian gerbils. The note with it: dosed twice with 20 mg/kg body weight ip (e.g. 45 min before and 5 min after occlusion); 10 min occlusion; brains taken after 4 days. Here is the method:
When testing in vivo using the gerbil ischemic model, adult female Mongolian gerbils (50-70 g) are anesthetized with 2 to 3% halothane. The bilateral common carotid arteries at the neck are exposed and occluded with microaneurysm clips. After 10 min (unless specified), the clips are removed and the blood flow through the carotid arteries is restored and the skin is sutured. Test compounds are administered intraperitoneally both pre- and post-occlusion, for example 45 minutes before and 5 minutes after occlusion of the carotid arteries. Sham-operated animals are treated in the same manner except that the arteries are not clamped. Gross behavioral observations along with motor activity are recorded for 2 hr on the first (24 hr) day following the occlusion. After 4 days, subjects are sacrificed (decapitation), brains are removed, fixed, sectioned and stained with hematoxylin/eosin and cresyl violet.
The brain sections are rated for neuronal damage in the hippocampus using the following rating scale:
1=slight damage (up to 25%) - restricted CA1/subiculum border
2=moderate damage (up to 50%) - obvious damage, restricted to less than half of CA1 field
3=marked damage (up to 75%) - involving greater than half of CA1 field
4=damage extending beyond CA1 field
Results can be reported as the percentage of neuroprotection afforded by a particular dose and dosing regimen.
Sections (7 micron) are evaluated from each brain. Occasionally, asymmetrical damage may be noted and the rating assigned is the average score of the two sides. The average brain damage rating score for each group is recorded, and the damage scores of the drug treated group are compared to the vehicle-treated group using Wilcoxcon-Rank Sum test.

Experiment [2] deals with T1, glycine receptor of the NMDA receptor complex (Rattus norvegicus, UniProt P35439).
T1 construct: neuronal synaptic membranes are prepared from adult (about 250 g) male Sprague-Dawley rats; from tissue; host or cells: synaptic membranes of cortices and hippocampi of adult male Sprague-Dawley rats
Kind of experiment: [3H]-glycine binding assay. To be noted: 20 nM [3H]-glycine, rat neuronal synaptic membranes (cortices and hippocampi), pH 7.1, 30 min, 4° C. More on the design: species or system Sprague-Dawley rats. Here is the method:
The actions of compounds of formula I as antagonists at the glycine receptor of the NMDA receptor complex can be shown by standard tests such as the [^3 H]-glycine binding assay, by functional assays in vitro such as tests for measuring glutamate evoked contractions of the guinea pig ileum, and by tests in vivo such as ischemia induced by carotid occlusion in the gerbil model.
In the [^3 H]-glycine binding assay, neuronal synaptic membranes are prepared from adult (about 250 g) male Sprague-Dawley rats. Freshly dissected cortices and hippocampi are homogenized in 0.32M sucrose (110 mg/mL). Synaptosomes are isolated by centrifugation (1000 xg, 10 min), the supernatant is pelleted (20,000 xg, 20 min) and resuspended in double-distilled water. The suspension was centrifuged for 20 minutes at 8,000 xg. The resulting supernatant and buffy coat are washed twice (48,000 xg, 10 mins, resuspension in double-deionized water). The final pellet is quickly frozen (dry ice ethanol bath) under double-deionized water and stored at -70 ° C. […]
For [^3 H]-glycine binding at the N-methyl-D-aspartate receptor, 20 nM [^3 H]-glycine (40-60 Ci/mmol, New England Nuclear, Boston, Mass.) is incubated with the membranes suspended in 50 mM tris (hydroxymethyl)aminomethane citrate, pH 7.1 for 30 minutes at 4° C. […] Radioactivity is estimated by liquid scintillation counting. […]

Consider `O=c1[nH]c2cc(Cl)ccc2c(=O)cc1NCCc1ccccc1` [Example 6, 8-Chloro-2,5-dioxo-3-phenethylamino-2,5-dihydro-1H-benz[b]azepine], for which the “neuroprotection (relative to sham-operated control)” value in experiment [1] is “about 43%”.

With `O=c1[nH]c2cc(Cl)ccc2c(=O)cc1N1CCCC1` [Example 12], in experiment [2], the IC50 is about 470 µM. Also, the “neuroprotection (relative to sham-operated control)” value in experiment [1] was “about 62%”.

`O=c1[nH]c2cc(Cl)ccc2c(=O)cc1NC[C@H](O)[C@@H](O)[C@H](O)[C@H](O)CO` [Example 19, 8-Chloro-3-(D-glucamino)-2,5-dioxo-2,5-dihydro-1H-benz[b]azepine]: the IC50 in experiment [2] was about 43 µM. For the same compound, the “neuroprotection (relative to sham-operated control)” value in experiment [1] is reported as “about 80%”.

A word on the IC50: it is the concentration that gives 50% inhibition.
